{
  "source": "patent US20160201132A1",
  "about": "“GENE EXPRESSION BIOMARKERS OF LAQUINIMOD RESPONSIVENESS” (Teva Pharmaceutical Industries Ltd., priority 2013, published 2016)",
  "system": "ITGB1",
  "experiment": "Western blot verification of ITGB1 protein in PBMC of LAQ-treated RRMS patients",
  "assay_type": "in vivo, human",
  "conditions": "six months of LAQ treatment vs baseline, n=5",
  "method": "FIG. 10: Expression of TGFb, ITGB1 and CXCR1 in RRMS patients treated with LAQ. Protein extracts were prepared from PBMCs samples derived from RRMS patients before treatment (black bars) and compared to PBMCs samples of the same patients after six months of LAQ treatment (white bars). The signal intensity of a protein bands were quantified by Quantity One 4.6.9 software. The resultant background-subtracted values of protein expression were normalized to those of Tubulin and then calculated as the relative protein levels for each patient before or after LAQ treatment. The blot images in A, B and C are representative of two out of five analyzed patients showing down regulation of TGFb, ITGB1 and CXCR1, respectively as also quantified by densitometry of bands analyzed from five patients. Data are presented as mean±SEM. Statistically significant differences are marked in graphs (n=5, paired one-tailed t-test). Protein fractions were purified from PBMC of 5 patients at baseline and after six months of LAQ treatment. Proteins were extracted from TRIZOL fractions and solubilized following the method reported by Hummon et al., 2007 (Hummon et al., 2007). […] Blots were analyzed by standard chemi-luminescence (Supersignal Kit, Pierce, Rockford, Ill., USA) and visualization was done by ChemiDoc™ XRS System (Bio-Rad).",
  "data": [
    {"smiles": "CCN(C(=O)c1c(O)c2c(Cl)cccc2n(C)c1=O)c1ccccc1", "note": "[LAQ, 5-chloro-N-ethyl-4-hydroxy-1-methyl-2-oxo-N-phenyl-1,2-dihydroquinoline-3-carboxamide]", "values": [
      {"measurement": "down regulation of ITGB1 protein", "result": 40, "unit": "%"}
    ]}
  ]
}
